Laboratory results reported in US8609666B2, “2-morpholino-pyrido[3,2-D]pyrimidines” (Merck Serono SA, priority 2009, dated 2013).

system: Human recombinant GST-PI3K; test: PI3K induced-lipid phosphorylation scintillation proximity assay (neomycin-coated SPA beads); format: biochemical; settings: amount necessary to achieve 50% inhibition of PI3K; 120 min at room temperature
Source text: The efficacy of compounds of the invention in inhibiting the PI3K induced-lipid phosphorylation may be tested in the following binding assay. The assay combines the scintillation proximity assay technology (SPA, Amersham) with the capacity of neomycin (a polycationic antibiotic) to bind phospholipids with high affinity and specificity. The Scintillation Proximity Assay is based on the properties of weakly emitting isotopes (such as ^3H, ^125I, ^33P). Coating SPA beads with neomycin allows the detection of phosphorylated lipid substrates after incubation with recombinant PI3K and radioactive ATP in the same well, by capturing the radioactive phospholipids to the SPA beads through their specific binding to neomycin. To a 96 wells MTP containing 10 μl of the test compound of Formula (I) (solubilized in 10% DMSO; to yield a concentration of 100, 25, 5.0, 1.25, 0.312, 0.078, 0.0195, 0.00488, 0.00122 and 0.0003 μM of the test compound), the following assay components are added: 1) 10 μL of lipid micelles 2) […] of Kinase buffer ([^33P]γATP162 μM/300 nCi, MgCl2 2.5 mM, DTT 2.5 mM, Na3VO4 25 μM in Hepes 40 mM, pH 7.4) and 3) 10 μL (100 ng) of Human recombinant GST-PI3K (in Hepes 40 mM, pH 7.4, ethylenglycol 4%). After incubation at room temperature for 120 minutes, with gentle agitation, the reaction is stopped by addition of 200 μL of a solution containing 250 μg of neomycin-coated PVT SPA beads, ATP 60 mM and EDTA 6.2 mM in PBS. The assay is further incubated at room temperature for 60 minutes with gentle agitation to allow binding of phospholipids to neomycin-SPA beads. After precipitation of the neomycin-coated PVT SPA beads for 5 minutes at 1500×g, radioactive PtdIns(3)P is quantified by scintillation counting in a Wallac MicroBeta™ plate counter. The values indicated in Table I below refer to the IC50 (μM) with respect to PI3K, i.e. the amount necessary to achieve 50% inhibition of said target. Said values show a considerable inhibitory potency of pyridopyrimidine compounds with regard to PI3K.

| Structure (SMILES) | IC50 |
| --- | --- |
| COCCN(C)c1cc(C(=O)O)nc2c(-c3ccc(O)cc3)nc(N3CCOCC3)nc12 [Example 3, 4-(4-hydroxy-phenyl)-8-[(2-methoxy-ethyl)-methyl-amino]-2-morpholin-4-yl-pyrido[3,2-d]pyrimidine-6-carboxylic acid] | 290 nM |
| COCCNc1cc(C(=O)O)nc2c(-c3ccc(CO)cc3)nc(N3CCOCC3)nc12 [Example 46, 4-[4-(Hydroxymethyl)phenyl]-8-[(2-methoxyethyl)amino]-2-morpholin-4-ylpyrido[3,2-d]pyrimidine-6-carboxylic acid] | 346 nM |
| COCc1cccc(-c2nc(N3CCOCC3)nc3c(N(C)C)cc(C(=O)O)nc23)c1 [Example 25, 8-Dimethylamino-4-(3-methoxymethyl-phenyl)-2-morpholin-4-yl-pyrido[3,2-d]pyrimidine-6-carboxylic acid] | 5050 nM |
| CN(C)c1cc(C(=O)O)nc2c(-c3ccc(O)cc3)nc(N3CCOCC3)nc12 [Example 4, 8-Dimethylamino-4-(4-hydroxy-phenyl)-2-morpholin-4-yl-pyrido[3,2-d]pyrimidine-6-carboxylic acid] | 350 nM |
| CN(C)c1cc(C(=O)O)nc2c(-c3cccc(C#N)c3)nc(N3CCOCC3)nc12 [Example 66, 4-(3-Cyanophenyl)-8-(dimethylamino)-2-morpholin-4-ylpyrido[3,2-d]pyrimidine-6-carboxylic acid] | 1100 nM |
| CNc1cc(C(=O)O)nc2c(-c3cccc4[nH]ccc34)nc(N3CCOCC3)nc12 [Example 18, 4-(1 H-Indol-4-yl)-8-methylamino-2-morpholin-4-yl-pyrido[3,2-d]pyrimidine-6-carboxylic acid] | 780 nM |
| CN(CCO)c1cc(C(=O)O)nc2c(-c3ccc(F)c(CO)c3)nc(N3CCOCC3)nc12 [Example 50, 4-[4-Fluoro-3-(hydroxymethyl)phenyl]-8-[(2-hydroxyethyl)(methyl)amino]-2-morpholin-4-ylpyrido[3,2-d]pyrimidine-6-carboxylic acid] | 303 nM |
| COCCNc1cc(C(=O)O)nc2c(-c3ccc(O)cc3)nc(N3CCOCC3)nc12 [Example 5, 4-(4-Hydroxy-phenyl)-8-(2-methoxy-ethylamino)-2-morpholin-4-yl-pyrido[3,2-d]pyrimidine-6-carboxylic acid] | 504 nM |
| COCCN(C)c1cc(C(=O)O)nc2c(-c3ccc(CO)cc3)nc(N3CCOCC3)nc12 [Example 22, 4-(4-Hydroxymethyl-phenyl)-8-[(2-methoxy-ethyl)-methyl-amino]-2-morpholin-4-yl-pyrido[3,2-d]pyrimidine-6-carboxylic acid] | 546 nM |
| COCCOc1cc(C(=O)O)nc2c(-c3ccc(O)cc3)nc(N3CCOCC3)nc12 [Example 6, 4-(4-Hydroxy-phenyl)-8-(2-methoxy-ethoxy)-2-morpholin-4-yl-pyrido[3,2-d]pyrimidine-6-carboxylic acid] | 2520 nM |
| COc1cccc(-c2nc(N3CCOCC3)nc3ccc(C(=O)O)nc23)c1 [Example 2, 4-(3-Methoxyphenyl)-2-morpholin-4-ylpyrido[3,2-d]pyrimidine-6-carboxylic acid] | 4490 nM |
| O=C(O)c1cc(NCCO)c2nc(N3CCOCC3)nc(-c3ccc(O)cc3)c2n1 [Example 7, 8-(2-Hydroxy-ethylamino)-4-(4-hydroxy-phenyl)-2-morpholin-4-yl-pyrido[3,2-d]pyrimidine-6-carboxylic acid] | 732 nM |
| CS(=O)(=O)c1cc(C(=O)O)nc2c(-c3ccc(O)c(F)c3)nc(N3CCOCC3)nc12 [Example 45, 4-(3-Fluoro-4-hydroxyphenyl)-8-(methylsulfonyl)-2-morpholin-4-ylpyrido[3,2-d]pyrimidine-6-carboxylic acid] | 335 nM |

Compounds with a lower IC50, results first:

| IC50 | Structure (SMILES) |
| --- | --- |
| 169 nM | COCCN(C)c1cc(C(=O)O)nc2c(-c3ccc4[nH]ccc4c3)nc(N3CCOCC3)nc12 [Example 21, 4-(1H-Indol-5-yl)-8-[(2-methoxy-ethyl)-methyl-amino]-2-morpholin-4-yl-pyrido[3,2-d]pyrimidine-6-carboxylic acid] |
| 137 nM | CN(C)CCN(C)c1cc(C(=O)O)nc2c(-c3cccc4[nH]ccc34)nc(N3CCOCC3)nc12 [Example 57, 8-[[2-(Dimethylamino)ethyl](methyl)amino]-4-(1H-indol-4-yl)-2-morpholin-4-ylpyrido[3,2-d]pyrimidine-6-carboxylic acid] |
| 93 nM | COCCOc1cc(C(=O)O)nc2c(-c3cc(O)cc(F)c3)nc(N3CCOCC3)nc12 [Example 15, 4-(3-Fluoro-5-hydroxy-phenyl)-8-(2-methoxy-ethoxy)-2-morpholin-4-yl-pyrido[3,2-d]pyrimidine-6-carboxylic acid] |
| 89 nM | COCCNc1cc(C(=O)O)nc2c(-c3ccc(F)cc3O)nc(N3CCOCC3)nc12 [Example 54, 4-(4-Fluoro-2-hydroxyphenyl)-8-[(2-methoxyethyl)amino]-2-morpholin-4-ylpyrido[3,2-d]pyrimidine-6-carboxylic acid] |
| 83 nM | CN(C)c1cc(C(=O)O)nc2c(-c3ccc(F)cc3O)nc(N3CCOCC3)nc12 [Example 52, 8-(Dimethylamino)-4-(4-fluoro-2-hydroxyphenyl)-2-morpholin-4-ylpyrido[3,2-d]pyrimidine-6-carboxylic acid] |
| 82 nM | O=C(O)c1cc(NCCO)c2nc(N3CCOCC3)nc(-c3ccccc3O)c2n1 [Example 44, 8-[(2-Hydroxyethyl)amino]-4-(2-hydroxyphenyl)-2-morpholin-4-ylpyrido[3,2-d]pyrimidine-6-carboxylic acid] |
| 80 nM | CC(=O)N1CCN(c2cc(C(=O)O)nc3c(-c4cccc(O)c4)nc(N4CCOCC4)nc23)CC1 [Example 60, 8-(4-Acetylpiperazin-1-yl)-4-(3-hydroxyphenyl)-2-morpholin-4-ylpyrido[3,2-d]pyrimidine-6-carboxylic acid] |
| 77 nM | CN(CCO)c1cc(C(=O)O)nc2c(-c3cccc4[nH]ccc34)nc(N3CCOCC3)nc12 [Example 20, 8-[(2-Hydroxy-ethyl)-methyl-amino]-4-(1H-indol-4-yl)-2-morpholin-4-yl-pyrido[3,2-d]pyrimidine-6-carboxylic acid] |
| 75 nM | O=C(O)c1cc(NCCO)c2nc(N3CCOCC3)nc(-c3cccc(O)c3)c2n1 [Example 12, 8-(2-Hydroxy-ethylamino)-4-(3-hydroxy-phenyl)-2-morpholin-4-yl-pyrido[3,2-d]pyrimidine-6-carboxylic acid] |
| 74 nM | CN(CCO)c1cc(C(=O)O)nc2c(-c3cccc(CO)c3)nc(N3CCOCC3)nc12 [Example 24, 8-[(2-Hydroxy-ethyl)-methyl-amino]-4-(3-hydroxymethyl-phenyl)-2-morpholin-4-yl-pyrido[3,2-d]pyrimidine-6-carboxylic acid] |
| 73 nM | COCCNc1cc(C(=O)O)nc2c(-c3cc(F)ccc3O)nc(N3CCOCC3)nc12 [Example 31, 4-(5-Fluoro-2-hydroxyphenyl)-8-[(2-methoxyethyl)amino]-2-morpholin-4-ylpyrido[3,2-d]pyrimidine-6-carboxylic acid] |
| 34 nM | CN(C)c1cc(C(=O)O)nc2c(-c3cccc(CO)c3)nc(N3CCOCC3)nc12 [Example 23, 8-Dimethylamino-4-(3-hydroxymethyl-phenyl)-2-morpholin-4-yl-pyrido[3,2-d]pyrimidine-6-carboxylic acid] |
| 28 nM | COCCN(C)c1cc(C(=O)O)nc2c(-c3cccc(O)c3)nc(N3CCOCC3)nc12 [Example 10, 4-(3-Hydroxy-phenyl)-8-[(2-methoxy-ethyl)-methyl-amino]-2-morpholin-4-yl-pyrido[3,2-d]pyrimidine-6-carboxylic acid] |
| 24 nM | COc1ccccc1-c1cc(C(=O)O)nc2c(-c3cccc(O)c3)nc(N3CCOCC3)nc12 [Example 13, 4-(3-hydroxyphenyl)-8-(2-methoxyphenyl)-2-morpholin-4-ylpyrido[3,2-d]pyrimidine-6-carboxylic acid] |
| 19 nM | COCCN(C)c1cc(C(=O)O)nc2c(-c3cc(O)cc(F)c3)nc(N3CCOCC3)nc12 [Example 14, 4-(3-Fluoro-5-hydroxy-phenyl)-8-[(2-methoxy-ethyl)-methyl-amino]-2-morpholin-4-yl-pyrido[3,2-d]pyrimidine-6-carboxylic acid] |
| 10 nM | CN(CCO)c1cc(C(=O)O)nc2c(-c3cccc(F)c3O)nc(N3CCOCC3)nc12 [Example 37, 4-(3-Fluoro-2-hydroxyphenyl)-8-[(2-hydroxyethyl)(methyl)amino]-2-morpholin-4-ylpyrido[3,2-d]pyrimidine-6-carboxylic acid] |
| 8 nM | COCCN(C)c1cc(C(=O)O)nc2c(-c3cccc(CO)c3)nc(N3CCOCC3)nc12 [Example 47, 4-[3-(Hydroxymethyl)phenyl]-8-[(2-methoxyethyl)(methyl)amino]-2-morpholin-4-ylpyrido[3,2-d]pyrimidine-6-carboxylic acid] |
